The record followed here is US20250230161A1, “POLYCYCLIC CAP-DEPENDENT ENDONUCLEASE INHIBITORS FOR TREATING OR PREVENTING INFLUENZA” (Merck Sharp & Dohme LLC, priority 2021, published 2025).

A word on the EC50: it is the concentration needed to bring the measured effect to its halfway point. Low values mean greater potency, high ones weaker potency.

This experiment concerns FLU A (PR/8/34). Nature of the experiment: Flu A Neuraminidase Antiviral Assay. It counts as cell-based. Conditions: MDCK cells infected with FLU A (PR/8/34), 48 h incubation, NA activity by MUNANA fluorescence.
With `O=C1c2c(O)c(=O)ccn2N2CN1CC(F)CCC2c1ccccc1` (centres unmarked) [Compound 9], a half-maximal effect (EC50) was put at 578 nM.
The figure for `CC1CCCC(c2ccccc2)N2CN1C(=O)c1c(O)c(=O)ccn12` (centres unmarked) [Compound 15] is 460 nM.
With `CC1CCN2CN(C(c3ccccc3)C1)n1ccc(=O)c(O)c1C2=O` (centres unmarked) [Compound 23] the figure was 4410 nM; with `O=C1c2c(O)c(=O)ccn2N2CN1CCCCC2c1cccc(Cl)c1` (centres unmarked) [Compound 3], 133 nM.
With `O=C1c2c(O)c(=O)ccn2N2CN1CCCCC2c1ccccc1Cl` (centres unmarked) [Compound 2] the figure was 72 nM; with `O=C1c2c(O)c(=O)ccn2N2CN1CCCCCC2c1ccccc1` (centres unmarked) [Compound 14], 927 nM.
Molecule `O=C1c2c(O)c(=O)ccn2N2CN1CCCCC2c1ccccc1Br` (centres unmarked) [Compound 5] gave an EC50 of 92 nM.
The figure for `CC1(c2ccccc2)CCCCN2CN1n1ccc(=O)c(O)c1C2=O` (centres unmarked) [Compound 13] is 310 nM; for `CC1N2CCCCCC(c3ccccc3)N1n1ccc(=O)c(O)c1C2=O` (centres unmarked) [Compound 22] it is 228 nM; for `O=C1c2c(O)c(=O)ccn2N2CN1C/C=C\CC2c1ccccc1` (centres unmarked) [Compound 17] it is 193 nM.
The figure for `O=C1c2c(O)c(=O)ccn2N2CN1CCCCC2c1cccc2ccccc12` (centres unmarked) [Compound 10] is 577 nM; for `CC1/C=C\CC(c2ccccc2)N2CN1C(=O)c1c(O)c(=O)ccn12` (centres unmarked) [Compound 19] it is 229 nM.
The figure for `O=C1c2c(O)c(=O)ccn2N2CN1CCCCC2c1ccc2ccccc2c1` (centres unmarked) [Compound 12] is 6290 nM.
`O=C1c2c(O)c(=O)ccn2N2CN1C/C=C\CC2c1cccc2ccc(F)cc12` (centres unmarked) [Compound 18]: the EC50 came to 1460 nM.
The figure for `O=C1c2c(O)c(=O)ccn2N2CN1CCCCC2c1ccccc1` (centres unmarked) [Compound 1] is 143 nM; for `O=C1c2c(O)c(=O)ccn2N2CN1CCCCC2c1cccc2ccc(F)cc12` (centres unmarked) [Compound 11] it is 966 nM.
Take `O=C1c2c(O)c(=O)ccn2N2CN1C(C1CC1)CCCC2c1ccccc1` (centres unmarked) [Compound 16]: a half-maximal response (EC50) required 164 nM.
The figure for `O=C1c2c(O)c(=O)ccn2N2CN1C(C1CC1)/C=C\CC2c1ccccc1` (centres unmarked) [Compound 20] is 171 nM.
The figure for `O=C1c2c(O)c(=O)ccn2N2CN1CCCCC2c1ccc(Cl)cc1` (centres unmarked) [Compound 4] is 1690 nM; for `CC1N2CCCCC(c3ccccc3)N1n1ccc(=O)c(O)c1C2=O` (centres unmarked) [Compound 21] it is 98 nM.
